Patent US12077503B2, “Substituted cyclic amides and their use as herbicides” (FMC CORPORATION, priority 2015, dated 2024)

Assays:
Assay type in all cases: in vivo
[1] = test system: velvetleaf (Abutilon theophrasti); experiment: Test G Pre-Emergence Protocol; details: Abutilon theophrasti, pre-emergence, 312 h, evaluated after 13 days; for pest or weed control at 15.625 g/ha: 15.625 g ai/ha; for pest or weed control at 15.625 g/ha / pest or weed control at 250 g/ha: read-out: Velvetleaf damage rating (100=total damage to plant; 0=no damage to plant); for pest or weed control at 62.5 g/ha: 62.5 g ai/ha, 100=total damage to plant, 0=no damage to plant, read-out: Velvetleaf damage rating; for pest or weed control at 250 g/ha: 250 g ai/ha
How it was run: (§1)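 Spraying took place one day after sowing, at 15.625, 62.5 or 250 g/ha, using an acetone/water (50:50) spray solution containing 0.5% Tween 20. Plants were kept under glasshouse conditions (24/16 °C, 14 h light, 65% humidity, watered twice daily), and injury was rated 0–100 at day 13.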

[2] = test system: barnyardgrass (Echinochloa crus-galli); experiment: Test G Pre-Emergence Protocol; details: Echinochloa crus-galli, pre-emergence, 312 h, evaluated after 13 days; for pest or weed control at 15.625 g/ha: 15.625 g ai/ha; for pest or weed control at 15.625 g/ha / pest or weed control at 250 g/ha: read-out: Barnyardgrass damage rating (100=total damage to plant; 0=no damage to plant); for pest or weed control at 62.5 g/ha: 62.5 g ai/ha, 100=total damage to plant, 0=no damage to plant, read-out: Barnyardgrass damage rating; for pest or weed control at 250 g/ha: 250 g ai/ha
How it was run: as §1

[3] = test system: redroot pigweed (Amaranthus retroflexus); experiment: Test G Pre-Emergence Protocol; details: Amaranthus retroflexus, pre-emergence, 312 h, evaluated after 13 days; for pest or weed control at 15.625 g/ha: 15.625 g ai/ha; for pest or weed control at 15.625 g/ha / pest or weed control at 250 g/ha: read-out: Pigweed, Redroot damage rating (100=total damage to plant; 0=no damage to plant); for pest or weed control at 62.5 g/ha: 62.5 g ai/ha, 100=total damage to plant, 0=no damage to plant, read-out: Pigweed, Redroot damage rating; for pest or weed control at 250 g/ha: 250 g ai/ha
How it was run: as §1

corn (Zea mays) [4] = experiment: Test G Pre-Emergence Protocol; details: Zea mays, pre-emergence, 312 h, evaluated after 13 days; for plant injury at 15.625 g/ha: 15.625 g ai/ha; for plant injury at 15.625 g/ha / plant injury at 250 g/ha: read-out: Corn damage rating (100=total damage to plant; 0=no damage to plant); for plant injury at 62.5 g/ha: 62.5 g ai/ha, 100=total damage to plant, 0=no damage to plant, read-out: Corn damage rating; for plant injury at 250 g/ha: 250 g ai/ha
How it was run: as §1

[5] = test system: giant foxtail (Setaria faberi); experiment: Test G Pre-Emergence Protocol; details: Setaria faberi, pre-emergence, 312 h, evaluated after 13 days; for pest or weed control at 15.625 g/ha: 15.625 g ai/ha; for pest or weed control at 15.625 g/ha / pest or weed control at 250 g/ha: read-out: Foxtail, Giant damage rating (100=total damage to plant; 0=no damage to plant); for pest or weed control at 62.5 g/ha: 62.5 g ai/ha, 100=total damage to plant, 0=no damage to plant, read-out: Foxtail, Giant damage rating; for pest or weed control at 250 g/ha: 250 g ai/ha
How it was run: as §1

[6] = test system: ivy-leaved morning glory (Ipomoea hederacea); experiment: Test G Pre-Emergence Protocol; details: Ipomoea, pre-emergence, 312 h, evaluated after 13 days; for pest or weed control at 15.625 g/ha: 15.625 g ai/ha; for pest or weed control at 15.625 g/ha / pest or weed control at 250 g/ha: read-out: Morningglory, Ivy-leaved damage rating (100=total damage to plant; 0=no damage to plant); for pest or weed control at 62.5 g/ha: 62.5 g ai/ha, 100=total damage to plant, 0=no damage to plant, read-out: Morningglory, Ivy-leaved damage rating; for pest or weed control at 250 g/ha: 250 g ai/ha
How it was run: as §1

[7] = test system: velvetleaf (Abutilon theophrasti); experiment: Test G Post-Emergence Protocol; details: Abutilon theophrasti, post-emergence, 312 h, read-out: Velvetleaf damage rating; for pest or weed control at 15.625 g/ha: 15.625 g ai/ha, evaluated after 13 days (100=total damage to plant; 0=no damage to plant); for pest or weed control at 62.5 g/ha: 62.5 g ai/ha; for pest or weed control at 62.5 g/ha / pest or weed control at 250 g/ha: evaluated after 13 days, 100=total damage to plant, 0=no damage to plant; for pest or weed control at 250 g/ha: 250 g ai/ha
How it was run: (§2)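 Seedlings grown 8 days in soil in a glasshouse (24/16 °C day/night, 14 h light, 65% humidity) were sprayed post-emergence with compound in acetone/water 50:50 plus 0.5% Tween 20 at 15.625, 62.5 or 250 g/ha. Damage was scored after 13 days on a 0–100 scale (100 = total damage).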

[8] = test system: barnyardgrass (Echinochloa crus-galli); experiment: Test G Post-Emergence Protocol; details: Echinochloa crus-galli, post-emergence, 312 h, read-out: Barnyardgrass damage rating; for pest or weed control at 15.625 g/ha: 15.625 g ai/ha, evaluated after 13 days (100=total damage to plant; 0=no damage to plant); for pest or weed control at 62.5 g/ha: 62.5 g ai/ha; for pest or weed control at 62.5 g/ha / pest or weed control at 250 g/ha: evaluated after 13 days, 100=total damage to plant, 0=no damage to plant; for pest or weed control at 250 g/ha: 250 g ai/ha
How it was run: as §2

[9] = test system: redroot pigweed (Amaranthus retroflexus); experiment: Test G Post-Emergence Protocol; details: Amaranthus retroflexus, post-emergence, 312 h, read-out: Pigweed, Redroot damage rating; for pest or weed control at 15.625 g/ha: 15.625 g ai/ha, evaluated after 13 days (100=total damage to plant; 0=no damage to plant); for pest or weed control at 62.5 g/ha: 62.5 g ai/ha; for pest or weed control at 62.5 g/ha / pest or weed control at 250 g/ha: evaluated after 13 days, 100=total damage to plant, 0=no damage to plant; for pest or weed control at 250 g/ha: 250 g ai/ha
How it was run: as §2

corn (Zea mays) [10] = experiment: Test G Post-Emergence Protocol; details: Zea mays, post-emergence, 312 h, read-out: Corn damage rating; for plant injury at 15.625 g/ha: 15.625 g ai/ha, evaluated after 13 days (100=total damage to plant; 0=no damage to plant); for plant injury at 62.5 g/ha: 62.5 g ai/ha; for plant injury at 62.5 g/ha / plant injury at 250 g/ha: evaluated after 13 days, 100=total damage to plant, 0=no damage to plant; for plant injury at 250 g/ha: 250 g ai/ha
How it was run: as §2

[11] = test system: giant foxtail (Setaria faberi); experiment: Test G Post-Emergence Protocol; details: Setaria faberi, post-emergence, 312 h, read-out: Foxtail, Giant damage rating; for pest or weed control at 15.625 g/ha: 15.625 g ai/ha, evaluated after 13 days (100=total damage to plant; 0=no damage to plant); for pest or weed control at 62.5 g/ha: 62.5 g ai/ha; for pest or weed control at 62.5 g/ha / pest or weed control at 250 g/ha: evaluated after 13 days, 100=total damage to plant, 0=no damage to plant; for pest or weed control at 250 g/ha: 250 g ai/ha
How it was run: as §2

[12] = test system: ivy-leaved morning glory (Ipomoea hederacea); experiment: Test G Post-Emergence Protocol; details: Ipomoea, post-emergence, 312 h, read-out: Morningglory, Ivy-leaved damage rating; for pest or weed control at 15.625 g/ha: 15.625 g ai/ha, evaluated after 13 days (100=total damage to plant; 0=no damage to plant); for pest or weed control at 62.5 g/ha: 62.5 g ai/ha; for pest or weed control at 62.5 g/ha / pest or weed control at 250 g/ha: evaluated after 13 days, 100=total damage to plant, 0=no damage to plant; for pest or weed control at 250 g/ha: 250 g ai/ha
How it was run: as §2

CC(C)Oc1cc(F)cc(C2CN(C)C(=O)C2C(=O)Nc2cccc(F)c2F)c1 (stereo not drawn) [Compound 1724]
30%: plant injury at 62.5 g/ha (corn (Zea mays) [10]) | pest or weed control at 62.5 g/ha [12]
50%: pest or weed control at 15.625 g/ha [2]
60%: pest or weed control at 250 g/ha [9]
0%: pest or weed control at 15.625 g/ha [1] | pest or weed control at 62.5 g/ha [1] | pest or weed control at 250 g/ha [1] | pest or weed control at 15.625 g/ha [3] | pest or weed control at 62.5 g/ha [3] | pest or weed control at 250 g/ha [3] | plant injury at 15.625 g/ha (corn (Zea mays) [4]) | pest or weed control at 15.625 g/ha [6] | pest or weed control at 62.5 g/ha [6] | pest or weed control at 250 g/ha [6] | pest or weed control at 15.625 g/ha [7] | pest or weed control at 15.625 g/ha [9] | plant injury at 15.625 g/ha (corn (Zea mays) [10])
10%: pest or weed control at 62.5 g/ha [7] | pest or weed control at 62.5 g/ha [9]
90%: pest or weed control at 250 g/ha [2] | plant injury at 250 g/ha (corn (Zea mays) [4]) | pest or weed control at 250 g/ha [5] | pest or weed control at 250 g/ha [8] | plant injury at 250 g/ha (corn (Zea mays) [10]) | pest or weed control at 250 g/ha [11]
70%: pest or weed control at 62.5 g/ha [2] | pest or weed control at 15.625 g/ha [5] | pest or weed control at 62.5 g/ha [5] | pest or weed control at 250 g/ha [7] | pest or weed control at 62.5 g/ha [8] | pest or weed control at 15.625 g/ha [11] | pest or weed control at 62.5 g/ha [11] | pest or weed control at 250 g/ha [12]
40%: plant injury at 62.5 g/ha (corn (Zea mays) [4]) | pest or weed control at 15.625 g/ha [8] | pest or weed control at 15.625 g/ha [12]

COc1cc(C2CN(C)C(=O)C2C(=O)Nc2cccc(F)c2F)cc(OC)c1F (stereo not drawn) [Compound 1711]
0%: pest or weed control at 15.625 g/ha [1] | pest or weed control at 62.5 g/ha [1] | pest or weed control at 250 g/ha [1] | pest or weed control at 15.625 g/ha [3] | pest or weed control at 62.5 g/ha [3] | pest or weed control at 250 g/ha [3] | plant injury at 15.625 g/ha (corn (Zea mays) [4]) | plant injury at 62.5 g/ha (corn (Zea mays) [4]) | pest or weed control at 15.625 g/ha [6] | pest or weed control at 15.625 g/ha [7] | pest or weed control at 62.5 g/ha [7] | pest or weed control at 250 g/ha [7] | pest or weed control at 15.625 g/ha [9] | pest or weed control at 62.5 g/ha [9] | pest or weed control at 250 g/ha [9] | plant injury at 15.625 g/ha (corn (Zea mays) [10])
90%: pest or weed control at 250 g/ha [5]
80%: pest or weed control at 250 g/ha [2] | pest or weed control at 250 g/ha [8] | pest or weed control at 62.5 g/ha [11] | pest or weed control at 250 g/ha [11]
20%: plant injury at 250 g/ha (corn (Zea mays) [4])
40%: plant injury at 250 g/ha (corn (Zea mays) [10])
70%: pest or weed control at 15.625 g/ha [5] | pest or weed control at 62.5 g/ha [5] | pest or weed control at 62.5 g/ha [8] | pest or weed control at 15.625 g/ha [11] | pest or weed control at 250 g/ha [12]
10%: pest or weed control at 62.5 g/ha [2] | pest or weed control at 62.5 g/ha [6] | pest or weed control at 250 g/ha [6] | plant injury at 62.5 g/ha (corn (Zea mays) [10]) | pest or weed control at 15.625 g/ha [12]
30%: pest or weed control at 15.625 g/ha [2] | pest or weed control at 15.625 g/ha [8] | pest or weed control at 62.5 g/ha [12]
